Source: patent publication EP4640679A1, “SALT FORM AND CRYSTAL FORM OF PYRIDINE MULTI-SUBSTITUTED COMPOUND AND PREPARATION METHOD THEREFOR” (Usynova Pharmaceuticals Ltd., priority 2022, dated 2024)

What was measured:
[1] = system: IFNα-stimulated phosphorylated STAT1; test: IFNα-stimulated phosphorylation STAT1 assay in hPBMC (flow cytometry, CD4+ T cells); type: cell-based, Human
Experimental: Human peripheral blood mononuclear cells (hPBMC) were seeded at a cell density of 1x10^5 cells/well and placed in an incubator at 37°C for 90 minutes. Then different concentrations of compounds were added to the cells, wherein the concentration range of each compound started from 2 µM, which was serially diluted 5-fold to obtain a total of 8 concentration gradients. The compounds and cells were incubated at 37 °C for 30 minutes. hPBMC were stimulated with IFN-a (1000 U/ml), and then the level of phosphorylated STAT1 in CD4+ T cells was detected by flow cytometry to evaluate the inhibitory activity of the compound on the IFN-α pathway. The results of the in vitro cell activity assay of the free base of the compound of the present disclosure are shown in Table 4: Table 4: In vitro cell activity test results of the compound of the present disclosure (IC50)

[2] = target: T1, TYK2 protein (His-TVMV-TYK2 JH2 (575-869)) (Homo sapiens, UniProt P29597); test: Tyk2 JH2 enzyme activity test (HTRF tracer displacement); type: binding
T1 construct: TYK2 protein (His-TVMV-TYK2 JH2 (575-869))
T1 sequence (P29597 575-869, species assumed): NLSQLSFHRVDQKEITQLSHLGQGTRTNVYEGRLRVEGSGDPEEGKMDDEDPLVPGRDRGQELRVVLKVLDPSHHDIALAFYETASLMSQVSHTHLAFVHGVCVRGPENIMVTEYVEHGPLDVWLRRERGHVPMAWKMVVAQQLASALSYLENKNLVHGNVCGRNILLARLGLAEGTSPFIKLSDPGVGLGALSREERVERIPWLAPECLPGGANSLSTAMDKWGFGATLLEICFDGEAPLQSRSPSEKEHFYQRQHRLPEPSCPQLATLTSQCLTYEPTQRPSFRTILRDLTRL
Experimental: To a buffer solution containing 20 mM of Hepes pH 7.5, 10 mM of MgCl2, 0.015% of Brij-35, 2 mM of DTT and 50 µg/ mL of BSA were added 0.5 nM of TYK2 protein (His-TVMV-TYK2 JH2 (575-869)), 0.2 nM of terbium-labeled His antibody, fluorescein-labeled kinase tracer at the relevant Kd value, and the test compound. The test system was incubated at room temperature for 90 minutes. Subsequently, the generated HTRF (homogeneous time-resolved fluorescence) signal, i.e., the ratio of the fluorescence intensity of the fluorescein acceptor (520 nm) and the terbium donor (495 nm) at the emission wavelength, was measured on an Envision plate reader, and the IC50 value was calculated based on this. The results of in vitro enzyme activity assay of the free base of the compound of the present disclosure are shown in Table 3: Table 3: In vitro enzyme activity test results of the compound of the present disclosure (IC50)

[3] = Pharmacokinetic study, oral administration, dog; type: in vivo; settings: plasma, 25 mg/kg, 25 mpk
Experimental: (§1) The purpose of this experiment is to study the pharmacokinetics of the test substance in the plasma of male CD-1 mice, SD rats and […] after intravenous injection and oral administration.
(§2) The animals were randomly divided into two groups, with 2 males in each group. The compounds were formulated into the specified formulations (the vehicle was 5 mg/mL of 10% sulfobutyl ether-β-cyclodextrin), and the oral formulations were clear or homogeneous suspensions.
(§3) Whole blood samples were collected from the animals by jugular vein puncture or saphenous vein at 5, 15, 30 minutes, 1, 2, 4, 8, and 24 hours after administration. The whole blood samples were added into centrifuge tubes containing anticoagulants, and centrifuged at 3000g for 15 minutes at 4°C. The supernatant plasma was collected and quickly frozen on dry ice and then stored in a refrigerator at -70 ± 10°C until LC-MS/MS analysis.
(§4) The pharmacokinetic software WinNonlin™ Version 6.3.0 (Pharsight, Mountain View, CA) was used to process the plasma drug concentration data of the compound in a non-compartmental model. The peak concentration (Cmax) and time to peak (Tmax) as well as last measurable time point were directly obtained from the plasma drug concentration-time graph.
(§5) The following pharmacokinetic parameters were calculated using the log-linear trapezoidal method: plasma clearance rate (CL), volume of distribution (Vd), elimination phase half-life (T1/2), mean residence time of drug in vivo from 0 to the terminal time point (MRT0-last), mean residence time of drug in vivo from 0 to infinite time (MRT0-inf), area under the time-plasma concentration curve from 0 to the terminal time point (AUC0-last), area under the time-plasma concentration curve from 0 to infinite time (AUC0-inf), and bioavailability (F). The experimental results of the present disclosure are shown in Table 5: Table 5: Pharmacokinetic test results

[4] = Pharmacokinetic study, oral administration, mouse; type: in vivo, CD-1 mice; settings: plasma, 10 mg/kg, 10 mpk
Experimental: as §1, §2, §3, §4, §5

[5] = Pharmacokinetic study, oral administration, rat; type: in vivo, SD rats; settings: plasma, 30 mg/kg, 30 mpk
Experimental: as §1, §2, §3, §4, §5

Row | SMILES | IC50 ([1]; Homo sapiens, CD4+ T, read-out: IFNα-stimulated phosphorylated STAT1 (IC50 nM)) | Tyk2-related cellular activity on IFNα-stimulated phosphorylated STAT1 ([1]; conclusion in words) | IC50 ([2]; HTRF, 90 minutes at room temperature) | inhibitory activity against Tyk2 JH2 ([2]; conclusion in words) | AUC(0-t) [3] | Cmax [3] | Tmax [3] | bioavailability [3] | AUC(0-t) [4] | Cmax [4] | Tmax [4] | bioavailability [4] | AUC(0-t) [5] | Cmax [5] | Tmax [5] | bioavailability [5]
1 | [2H]C([2H])([2H])CC(=O)c1cnc(NC(=O)C2CC2)cc1Nc1cccc(-c2cnc(N=S(C)(C)=O)cn2)c1OC | 1.1 nM | strong Tyk2-related cellular activity | 0.04 nM | strong inhibitory activity | – | – | – | – | – | – | – | – | – | – | – | –
2 | [2H]C([2H])([2H])CC(=O)c1cnc(NC(=O)C2CC2)cc1Nc1cccc(-c2cnc(N=S(C)(C)=O)cn2)c1OC [Compound of formula (I)] | – | – | – | – | 66.5 µM·h | 16.8 µM | 120 min | 103% | 76 µM·h | 32.4 µM | 30 min | 81% | 231 µM·h | 44.5 µM | 45 min | 65%
